From patent publication US10435447B2, “Bacteriocidal peptides and uses thereof” (priority 2015, dated 2019)
Values after ≈ are worked out from the molar mass of the structure shown. Like-named read-outs stand apart in the source and are kept apart here. Residues, ends and D or L forms follow the SMILES beside them.

Key:
K. pneumoniae [1] = test system: K. pneumoniae
S. marcescens [2] = test system: S. marcescens
P. aeruginosa [3] = test: microbe, parasite or virus in culture; conditions: Pseudomonas aeruginosa
E. cloacae [4] = test: microbe, parasite or virus in culture; conditions: Enterobacter cloacae
K. pneumoniae [5] = test: microbe, parasite or virus in culture; conditions: Klebsiella pneumoniae
S. marcescens [6] = test: microbe, parasite or virus in culture; conditions: Serratia marcescens
E. coli [7] = test: microbe, parasite or virus in culture; conditions: Escherichia coli
E. cloacae [8] = test system: E. cloacae
P. aeruginosa [9] = test system: P. aeruginosa
E. coli [10] = conditions: for LVX MIC fold change (↓ decrease) / MEM MIC fold change (↓ decrease): with SMAP-29C* vs alone
[11] = test system: Toll-like receptor 3 (TLR3); conditions: mouse cells and human cells; earlier finding; cited from earlier work
TLR4 = conditions: earlier finding; cited from earlier work
[12] = test system: Toll-like receptor 3 (TLR3); test: IL-6 ELISA, TLR3 signaling with poly(I:C) in BEAS-2B cells; type: cell-based, human
Description: Innate immune signaling by endogenous Toll-like receptor 3 (TLR3) in BEAS-2B cells in response to double-stranded RNA and various bacteriocidal peptides. IL-6 cytokine produced in response to signal transduction by TLR3 and the double-stranded RNA mimic, poly(I:C), was quantified using ELISA. Where present, the peptides were added to the media of BEAS-2B cells to a final concentration of 2 μM. […] All assays were performed in three independent samples and the mean and one standard error is shown above the bars.

[13] = K. pneumoniae OC 4110, with SMAP-29C* vs alone
[14] = S. marcescens 4104, with SMAP-29C* vs alone
[15] = read-out: Kan + SMAP-29C* (Kan MIC)
[16] = E. cloacae OC 4080, with SMAP-29C* vs alone
[17] = P. aeruginosa PA01 oprD, with SMAP-29C* vs alone
[18] = read-out: MEM + SMAP-29C* (MEM MIC)

## NC[C@H]1O[C@H](O[C@H]2[C@H](O)[C@@H](O[C@H]3O[C@H](CO)[C@@H](O)[C@H](N)[C@H]3O)[C@H](N)C[C@@H]2N)[C@H](O)[C@@H](O)[C@@H]1O [Kan, kanamycin]
K. pneumoniae [1]; [13]
  Kan MIC Fold change (↓ decrease): ↓2x fold
S. marcescens [2]; [14]
  Kan MIC Fold change (↓ decrease): ↓2x fold
P. aeruginosa [3]; read-out: Kan (MIC alone)
  MIC: 64 µg/mL (≈ 132 µM)
P. aeruginosa [3]; [15]
  MIC: 32 µg/mL
E. cloacae [4]; read-out: Kan (MIC alone)
  MIC: 2 µg/mL (≈ 4.13 µM)
K. pneumoniae [5]; read-out: Kan (MIC alone)
  MIC: 4 µg/mL (≈ 8.26 µM)
S. marcescens [6]; read-out: Kan (MIC alone)
  MIC: 4 µg/mL (≈ 8.26 µM)
E. coli [7]; ATCC25922, read-out: Kan (MIC alone)
  MIC: 2 µg/mL (≈ 4.13 µM)
E. coli [7]; read-out: Kan (MIC alone)
  MIC: 16 µg/mL (≈ 33 µM)
E. coli [7]; [15]
  MIC: 8 µg/mL

## C[C@H]1COc2c(N3CCN(C)CC3)c(F)cc3c(=O)c(C(=O)O)cn1c23 [LVX, Levofloxacin]
E. cloacae [8]
  LVX + SMAP-29C* (LVX MIC): <0.004 µg/mL
E. cloacae [8]; [16]
  LVX MIC fold change (↓ decrease): ↓>8x fold
P. aeruginosa [9]
  LVX + SMAP-29C* (LVX MIC): <0.125 µg/mL
P. aeruginosa [9]; [17]
  LVX MIC fold change (↓ decrease): ↓>32x fold
K. pneumoniae [1]
  LVX + SMAP-29C* (LVX MIC): 0.5 µg/mL
K. pneumoniae [1]; [13]
  LVX MIC fold change (↓ decrease): 1 fold
S. marcescens [2]
  LVX + SMAP-29C* (LVX MIC): <0.125 µg/mL
S. marcescens [2]; [14]
  LVX MIC fold change (↓ decrease): ↓>32x fold
P. aeruginosa [3]; read-out: LVX (MIC alone)
  MIC: 4 µg/mL (≈ 11.1 µM)
E. cloacae [4]; read-out: LVX (MIC alone)
  MIC: 0.032 µg/mL (≈ 0.0886 µM)
K. pneumoniae [5]; read-out: LVX (MIC alone)
  MIC: 0.5 µg/mL (≈ 1.38 µM)
S. marcescens [6]; read-out: LVX (MIC alone)
  MIC: 4 µg/mL (≈ 11.1 µM)
E. coli [10]; E. coli ATCC 25922
  LVX MIC fold change (↓ decrease): 1 fold
E. coli [10]; E. coli IU-342
  LVX MIC fold change (↓ decrease): ↓4x fold
E. coli [7]; ATCC25922, read-out: LVX (MIC alone)
  MIC: 0.016 µg/mL (≈ 0.0443 µM)
E. coli [7]; read-out: LVX (MIC alone)
  MIC: 8 µg/mL (≈ 22.1 µM)

## C[C@@H](O)[C@H]1C(=O)N2C(C(=O)O)=C(S[C@@H]3CN[C@H](C(=O)N(C)C)C3)[C@H](C)[C@H]12 [MEM, Meropenem]
E. cloacae [8]; [16]
  MEM MIC fold change (↓ decrease): ↓4x fold
P. aeruginosa [9]; [17]
  MEM MIC fold change (↓ decrease): ↓2x fold
K. pneumoniae [1]; [13]
  MEM MIC fold change (↓ decrease): 1x fold
S. marcescens [2]; [14]
  MEM MIC fold change (↓ decrease): ↓4x fold
P. aeruginosa [3]; read-out: MEM (MIC alone)
  MIC: 1 µg/mL (≈ 2.61 µM)
P. aeruginosa [3]; [18]
  MIC: 0.5 µg/mL
E. cloacae [4]; read-out: MEM (MIC alone)
  MIC: 0.032 µg/mL (≈ 0.0834 µM)
E. cloacae [4]; [18]
  MIC: 0.008 µg/mL
K. pneumoniae [5]; read-out: MEM (MIC alone)
  MIC: 0.052 µg/mL (≈ 0.136 µM)
K. pneumoniae [5]; [18]
  MIC: 0.032 µg/mL
S. marcescens [6]; read-out: MEM (MIC alone)
  MIC: 0.032 µg/mL (≈ 0.0834 µM)
S. marcescens [6]; [18]
  MIC: 0.008 µg/mL
E. coli [10]; E. coli ATCC 25922
  MEM MIC fold change (↓ decrease): ↓2x fold
E. coli [10]; E. coli IU-342
  MEM MIC fold change (↓ decrease): ↓>4x fold
E. coli [7]; ATCC25922, read-out: MEM (MIC alone)
  MIC: 0.016 µg/mL (≈ 0.0417 µM)
E. coli [7]; ATCC25922, read-out: MEM + SMAP-29C* (MEM MIC)
  MIC: 0.008 µg/mL
E. coli [7]; read-out: MEM (MIC alone)
  MIC: 0.016 µg/mL (≈ 0.0417 µM)
E. coli [7]; [18]
  MIC: < 0.004 µg/mL

## CC[C@H](C)[C@H](NC(=O)[C@H](CCCCN)NC(=O)[C@H](CCCNC(=N)N)NC(=O)CNC(=O)[C@H](CC(C)C)NC(=O)[C@H](CCCNC(=N)N)NC(=O)[C@H](CCCNC(=N)N)NC(=O)[C@H](CC(C)C)NC(=O)CNC(=O)[C@@H](N)CCCNC(=N)N)C(=O)N[C@@H](C)C(=O)N[C@@H](Cc1c[nH]cn1)C(=O)NCC(=O)N[C@H](C(=O)N[C@@H](CCCCN)C(=O)N[C@@H](CCCCN)C(=O)N[C@@H](CS)C(=O)NCC(=O)N1CCC[C@H]1C(=O)N[C@H](C(=O)N[C@H](C(=O)N[C@@H](CC(C)C)C(=O)N[C@@H](CCCNC(=N)N)C(=O)N[C@H](C(=O)N[C@H](C(=O)N[C@@H](CCCNC(=N)N)C(=O)N[C@H](C(=O)N[C@@H](C)C(=O)NCC(=O)N[C@@H](CS)C(=O)O)[C@@H](C)CC)[C@@H](C)CC)[C@@H](C)CC)C(C)C)[C@@H](C)O)C(C)C [SMAP-29C] (H-RGLRRLGRKIAHGVKKCGPTVLRIIRIAGC-OH; N-terminus and C-terminus assumed)
E. faecalis
  MIC: 32 µg/mL (≈ 9.7 µM)
E. cloacae [8]; E. cloacae OC 4080, with Kan* 1 μg/ml (½ MIC)
  MIC for ShpC + Kan*: 2 µg/mL
P. aeruginosa [9]
  MIC for ShpC + Kan*: 2 µg/mL
K. pneumoniae [1]; K. pneumoniae OC 4110, with Kan* 2 μg/ml (½ MIC)
  MIC for ShpC + Kan*: 2 µg/mL
K. pneumoniae [1]; K. pneumoniae OC 4110, with Kan* vs alone
  SMAP-29C MIC fold change (↓ decrease): ↓4x fold
K. pneumoniae [1]; K. pneumoniae OC 4110, with LVX* vs alone
  SMAP-29C MIC fold change (↓ decrease): 1x fold
K. pneumoniae [1]; K. pneumoniae OC 4110, with MEM* vs alone
  SMAP-29C MIC fold change (↓ decrease): ↓2x fold
S. marcescens [2]; S. marcescens 4104, with Kan* 2 μg/ml (½ MIC)
  MIC for ShpC + Kan*: 2 µg/mL
S. marcescens [2]; S. marcescens 4104, with Kan* vs alone
  SMAP-29C MIC fold change (↓ decrease): ↓>8x fold
S. marcescens [2]; S. marcescens 4104, with LVX* vs alone
  SMAP-29C MIC fold change (↓ decrease): ↓>4x fold
S. marcescens [2]; S. marcescens 4104, with MEM* vs alone
  SMAP-29C MIC fold change (↓ decrease): No change
E. coli [10]; E. coli ATCC25922, with Kan* 1 μg/ml (½ MIC)
  MIC for ShpC + Kan*: <0.25 µg/mL
E. coli [10]; E. coli IU-342, with Kan* 8 μg/ml (½ MIC)
  MIC for ShpC + Kan*: 2 µg/mL

## CRAMP: SEQ ID NO: 4, mouse ortholog of LL-37, GLLRKGGEKIGEKLKKIGQKIKNFFQKLVPQPEQ (listed as Mus musculus)
[11]
  activation of signaling by TLR3: unable to activate signaling by TLR3
TLR4
  suppression of inflammatory response induced by lipopolysaccharide: retained the ability to suppress inflammatory response
[12]
  enhancement of TLR3 signaling / IL-6 production (in words): unable to enhance IL-6 production
